For 100 molecules, cytotoxicity and Inhibition results are on record in ChEMBL document CHEMBL3507680, “University of Dundee, Gates Library screen for HepG2 cell viability”.

SMILES strings stand for the structures. “And” between values parts separate entries of the source, which are not always exact repeats. Identical values can stand only once.

One data set can be described thus: Human HepG2 cell viability assay in 384 well format. Also noted: dose 125 nL, time 70.5 hour; cytotoxicity at 70.5 h: concentration not given beside the values. Particulars: HepG2 cells, read-out: Inhibition. The data set is classed as toxicity, cell-based.
On to `CN(CCO)CC1COCCN1C(=O)CCC1CCCC1` (stereo not given), for which the cytotoxicity at 70.5 h was found to be 47.6%.

Take `Cc1ccc(C(=O)Nc2ccc(N3CCCC3)cn2)cc1F`: the cytotoxicity at 70.5 h is 19.7%.

For `CCc1ccc(O)c(C(=O)N2CCN(CC(=O)N(C)C)CC2)c1`, the cytotoxicity at 70.5 h was -1.61%.

Turning to `CCn1nc(C(=O)N2CCCC2c2noc(C)n2)ccc1=O` (stereo not given), the cytotoxicity at 70.5 h is -3.84%.

Consider `c1cc2n(n1)CC(CNCc1ccc(OCC3CC3)nc1)CN2` (stereo not given), for which the cytotoxicity at 70.5 h is 1.11%.

Consider `Cc1nc(C(=O)N2CCN(S(C)(=O)=O)[C@@H]3CS(=O)(=O)C[C@@H]32)cs1`, for which the cytotoxicity at 70.5 h came to 1.07%.

Consider `CN1C[C@H]2CN(C(=O)c3ccc4c(c3)OCO4)CCN2C1=O`, for which the cytotoxicity at 70.5 h is -8.59%.

For the molecule `COc1ccc(CC(=O)Nc2cccnc2N2CCCC2)cc1OC`, the cytotoxicity at 70.5 h is -1.14%.

On to `Cc1csc(N2CCN(C(=O)Cc3cccs3)CC2)n1`, for which the cytotoxicity at 70.5 h is -2.84%.

For the molecule `COc1ccc(O[C@H]2COCCN(Cc3c[nH]c4ccccc34)C2)cc1`, the cytotoxicity at 70.5 h worked out at 1.44%.

On to `CCCN1Cc2nc(N3CCCC3)ncc2C1=O`, for which the cytotoxicity at 70.5 h was -5.27%.

Turning to `O=C(CCNc1ncccn1)N1CCC(Nc2cccnn2)CC1`, the cytotoxicity at 70.5 h is -2.9%.

`CCOc1cc(F)ccc1NC1CCN(CC(F)(F)F)C1=O` (stereo not given): the cytotoxicity at 70.5 h is -0.756%.

Take `COC(=O)CCN1CCC(NC(=O)OC(C)(C)C)CC1`: the cytotoxicity at 70.5 h was 1.05%.

For `O=c1ccc2c([nH]1)CCC(NCc1ccc3c(c1)OCO3)C2` (stereo not given), the cytotoxicity at 70.5 h is -1.6%.

`Cc1nn(C2CCS(=O)(=O)C2)c(O)c1Cc1ccccc1Cl` (stereo not given): the cytotoxicity at 70.5 h is -18.5%.

In the case of `O=C(NC1CC2(CCN(CCO)CC2)c2ccccc21)c1ccno1` (stereo not given), the cytotoxicity at 70.5 h turned out to be 17.6%.

For the molecule `CC(NC(=O)CCCN(C)C)c1cn(-c2ccccc2)nn1` (stereo not given), the cytotoxicity at 70.5 h was 20.9%.

Turning to `COCCN1CCC2(COCCN(C(=O)Cc3cccs3)C2)C1` (stereo not given), the cytotoxicity at 70.5 h was -5.29%.

For `Cc1ccc(C(=O)N(C)C)cc1NC(=O)COCC1CC1`, the cytotoxicity at 70.5 h is -6.84%.

In the case of `CCOC(=O)CN1CCC2(CC1)CC(NC(=O)c1ccccn1)CO2` (stereo not given), the cytotoxicity at 70.5 h is -1.03%.

On to `COC(=O)CN1CCCn2nc(CCC(=O)N3CCCC3)cc2C1`, for which the cytotoxicity at 70.5 h was 2.63%.

In the case of `CC(=O)N1CCC(C(=O)N2CCC(=Cc3cccc(F)c3)CC2)CC1`, the cytotoxicity at 70.5 h was -11.3%.

Turning to `Cc1ccccc1S(=O)(=O)N1CCC(c2[nH]ncc2C)C1` (stereo not given), the cytotoxicity at 70.5 h was -8.88%.

With `Cc1nc(-c2noc3ccc(C(=O)NCCN4CCOCC4)cc23)co1`, the cytotoxicity at 70.5 h turned out to be 12.2%.

`Cc1nn(C)c(C)c1CCC(=O)N1CCc2sccc2C1`: the cytotoxicity at 70.5 h was determined as 23.2%.

For the molecule `Cc1cccc(C(=O)Nc2c(C(=O)N(C)C)nn(C)c2C)c1`, the cytotoxicity at 70.5 h is -3.25%.

Consider `CC(=O)Nc1cccc2c1ccn2CC(=O)Nc1nc[nH]n1`, for which the cytotoxicity at 70.5 h is -2.28%.

Take `CC(C)c1cc(C(=O)N2CCCN(Cc3ccccc3)CC2)n[nH]1`: the cytotoxicity at 70.5 h is -5.87%.

With `C/C=C(\C)CN1CCC2(CCC(=O)N2OCc2ccccc2F)CC1`, the cytotoxicity at 70.5 h was -7.98%.

With `CC(C)(C)c1ccc2c(c1)CCN2C(=O)c1ccc(=O)[nH]n1`, the cytotoxicity at 70.5 h was -5.53%.

On to `COCCN(C)C(C)Cc1ccccc1OC` (stereo not given), for which the cytotoxicity at 70.5 h is -11.8%.

On to `Cc1ccsc1CNCCCOc1ccccn1`, for which the cytotoxicity at 70.5 h amounted to 1.65%.

Turning to `O=C(c1cnc(-c2ccco2)s1)N1CCCCC1Cn1cccn1` (stereo not given), the cytotoxicity at 70.5 h was -9.96%.

In the case of `O=C(c1cccc(Cn2ccnc2)c1)N1CCCC(n2cccn2)C1` (stereo not given), the cytotoxicity at 70.5 h was determined as 5.77%.

With `CC(C)NC(=O)c1cc2c(nc1N(C)C)CCN(S(=O)(=O)C1CC1)CC2`, the cytotoxicity at 70.5 h was 7.69%.

As to `Cc1cccc(C(=O)N(C)Cc2cc(Br)cs2)n1`, the cytotoxicity at 70.5 h was -27.1%.

For `Cc1nc(-c2nc(C(=O)N3CCOCC3)c3ccccn23)cn1C(C)C`, the cytotoxicity at 70.5 h is -5.18%.

Turning to `O=C1CC[C@H]2CN(Cc3cccnc3)CC[C@H]2N1CCc1c[nH]cn1`, the cytotoxicity at 70.5 h was -1.83%.

In the case of `COc1cccc(CNc2nc(O)cc(C3CC(=O)N(C)C3)n2)c1` (stereo not given), the cytotoxicity at 70.5 h was -11.6%.

On to `CCc1nnc(C2Cc3ccccc3CN2Cc2nc(C3CC3)no2)o1` (stereo not given), for which the cytotoxicity at 70.5 h is -5.61%.

With `Cc1c(-c2ccncc2)n[nH]c1NC(=O)CCOC(C)C`, the cytotoxicity at 70.5 h was -4.44%.

In the case of `COCc1noc(-c2nn(-c3ccccc3F)c3c2CCC3)n1`, the cytotoxicity at 70.5 h is -6.39%.

On to `COc1cccc(CC2(CO)CCCN(c3nccs3)C2)c1` (stereo not given), for which the cytotoxicity at 70.5 h was -1.79%.

As to `CC(C)NC(=O)N1CCN(CC2CC2)c2ncccc2C1`, the cytotoxicity at 70.5 h was -15.2%.

As to `O=C(NCC1CC1)c1nc(COc2ccc3c(c2)OCO3)no1`, the cytotoxicity at 70.5 h turned out to be 0.603%.

In the case of `O=C1[C@H]2CC[C@H](CN(C3CCOCC3)C2)N1Cc1cscn1`, the cytotoxicity at 70.5 h was 23.4%.

Consider `CCN1CCN(C(=O)c2cn(Cc3ccccc3)c3ncccc23)CC1`, for which the cytotoxicity at 70.5 h was -0.985%.

Turning to `COCCN1CCN(Cc2c(C)noc2C)Cc2ccc(C)nc21`, the cytotoxicity at 70.5 h was -1.53%.

With `O=C(C1CC(F)(F)C1)N1C[C@@H]2CN(CC3CCCC3)CCO[C@@H]2C1`, the cytotoxicity at 70.5 h was determined as 22.1%.

Regarding `Cc1nc(C2CCCN(C(=O)CCCn3ccnc3C)C2)no1` (stereo not given), the cytotoxicity at 70.5 h is -11.8%.

For the molecule `COc1cc(Cl)ccc1CNC(=O)N1CCC(n2cncn2)CC1`, the cytotoxicity at 70.5 h came out at 0.114%.

`c1ccc(COCCN2CCc3[nH]cnc3C2c2ccco2)cc1` (stereo not given): the cytotoxicity at 70.5 h is -4.41%.

As for `O=C(CN1CCOCS1(=O)=O)NCc1ccccc1`, the cytotoxicity at 70.5 h was determined as 25.7%.

As for `CC(O)CC(C)(C)CNC(=O)Nc1cnn(-c2ccccc2F)c1` (stereo not given), the cytotoxicity at 70.5 h was -4.35%.

Regarding `NC(=O)CC1CCN(Cc2ccccc2OCC(F)(F)F)CC1`, the cytotoxicity at 70.5 h was -8.22%.

For `CCc1nc(-c2noc3ccc(C(=O)NCCN(C)C)cc23)co1`, the cytotoxicity at 70.5 h was -4.76%.

With `CCn1nc(C)cc1NC(=O)CCn1nc(C)c2ccccc21`, the cytotoxicity at 70.5 h was -10.1%.

For `CCS(=O)(=O)N1Cc2ncn(CC3CC3)c2C(COCC2CC2)C1` (stereo not given), the cytotoxicity at 70.5 h was found to be 1.64%.

On to `O=C1c2cc(Br)cc(Br)c2OCC1(CN1CCCC1)CN1CCCC1`, for which the cytotoxicity at 70.5 h is -1.34%.

Turning to `COCC(NC(=O)NCc1sc(C)nc1C)c1ccco1` (stereo not given), the cytotoxicity at 70.5 h was 7.86%.

Regarding `COCCN(CCC#N)Cn1cc(Cl)cn1`, the cytotoxicity at 70.5 h was -2.01%.

Turning to `O=C(CC1CCN(c2cccnn2)CC1)Nc1nncs1`, the cytotoxicity at 70.5 h was -5.72%.

`CCCn1nccc1-c1cc(C2CCN(S(C)(=O)=O)CC2)nc(C)n1`: the cytotoxicity at 70.5 h is -6.18%.

Take `Cc1ccc(CN2CCn3c(CNS(C)(=O)=O)nnc3C2)s1`: the cytotoxicity at 70.5 h amounted to 22.6%.

For the molecule `CC(NC(=O)NC1CCN(Cc2ccccc2)CC1)c1nncn1C` (stereo not given), the cytotoxicity at 70.5 h came to 2.2%.

As to `CC(C)(C)n1ncc2c1NC(=O)CC2c1ccsc1` (stereo not given), the cytotoxicity at 70.5 h was -5.9%.

In the case of `Cn1cc(Br)c(=O)c(NS(=O)(=O)c2ccc3c(c2)CCC3)c1`, the cytotoxicity at 70.5 h stood at 2.07%.

Regarding `Cc1nc(C2CCCN2CCCS(=O)(=O)N(C)C)no1` (stereo not given), the cytotoxicity at 70.5 h was 22.2%.

`CCCNC(=O)c1c(-n2cnnn2)sc2c1CCC2`: the cytotoxicity at 70.5 h was -10.4%.

Consider `COCCc1noc(-c2ccc(=O)[nH]c2)n1`, for which the cytotoxicity at 70.5 h stood at 2.52%.

In the case of `COc1ccccc1-n1c(CC(C)C)nnc1SCC(=O)O`, the cytotoxicity at 70.5 h is -2.95%.

As to `O=C(NCc1ccco1)[C@@H]1COC[C@H]2CN(c3ncc(F)cn3)C[C@H]21`, the cytotoxicity at 70.5 h is -7.6%.

With `Cc1cc(C(=O)NC(CC(C)C)C(=O)Nc2cc[nH]n2)c(C)o1` (stereo not given), the cytotoxicity at 70.5 h came to 0.859%.

`OCc1cc2ccccc2nc1N1CCCC1`: the cytotoxicity at 70.5 h is -15.5%.

Consider `Cc1cc(N2CCN(c3nc4ccccc4cc3CO)CC2)nc(C)n1`, for which the cytotoxicity at 70.5 h was -9.44%.

Consider `CCn1cc(CNC(=O)C2CCCC2)cn1`, for which the cytotoxicity at 70.5 h is -17.8%.

Consider `CC(C)C(C)(CNC(=O)OC(C)(C)C)NC(=O)c1cnccn1` (stereo not given), for which the cytotoxicity at 70.5 h is 2.42%.

Turning to `CCN1CCN(C2CCN(Cc3ccc(Cl)s3)CC2)C1=O`, the cytotoxicity at 70.5 h was 1.3%.

As to `Cc1cnccc1Cn1ccnc1C1CCOC1` (stereo not given), the cytotoxicity at 70.5 h was -7.66%.

Take `Fc1ccc(C2(CNCCc3cccs3)CCOC2)cc1` (stereo not given): the cytotoxicity at 70.5 h is -6.84%.

As for `CCn1cc(-c2cc(C(F)F)nc3sc(C(N)=O)c(N)c23)c(C)n1`, the cytotoxicity at 70.5 h is -3.39%.

For `COc1ccc(Cn2c(Cc3c(C)n[nH]c3C)n[nH]c2=O)cc1`, the cytotoxicity at 70.5 h is -12.9%.

In the case of `CSCc1nc(CNC(=O)C2CCCN(C(=O)N(C)C)C2)cs1` (stereo not given), the cytotoxicity at 70.5 h is -7.03%.

Turning to `CC(C)(C)OC(=O)N[C@@H]1C[C@@H](O)CN(C(=O)c2ccc(F)cc2)C[C@H]1O`, the cytotoxicity at 70.5 h is -2.5%.

Consider `CCc1nc(CCNc2ncccn2)sc1C`, for which the cytotoxicity at 70.5 h was -7.68%.

With `O=C(CCc1ccccc1)C1CCCN(C(=O)c2ncc(F)cc2F)C1` (stereo not given), the cytotoxicity at 70.5 h was -3.9%.

As for `Cc1nnc(CCNC(=O)C(c2ccc(F)cc2)N(C)C)[nH]1` (stereo not given), the cytotoxicity at 70.5 h worked out at 25%.

On to `CC(C(N)=O)N1CCN(c2ncc(Br)cn2)CC1` (stereo not given), for which the cytotoxicity at 70.5 h came to 0.267%.

As for `Cc1c(C(=O)N2CC(Cc3nccc4ccn(C)c34)C2)cnn1C`, the cytotoxicity at 70.5 h was -6.29%.

For `CCC(C)(NCC(=O)NC(C)C)c1nc(C)cs1` (stereo not given), the cytotoxicity at 70.5 h was -3.79%.

On to `CCC(C)(C)NC(=O)Cn1nc(C)nc1-c1ccccc1`, for which the cytotoxicity at 70.5 h is -0.158%.

Regarding `CN(C)C(C(=O)N1Cc2ccccc2C1)c1ccccc1F` (stereo not given), the cytotoxicity at 70.5 h was -2.59%.

`Cc1cccc(NC(=O)c2[nH]nc(C(C)C)c2Br)n1`: the cytotoxicity at 70.5 h was found to be 23.8%.

In the case of `CCc1nn(C)c(Cl)c1CN1CCC(Cc2nncn2C)CC1`, the cytotoxicity at 70.5 h was -3.75%.

In the case of `CS(=O)(=O)N1CCN(C(=O)c2cc(-c3ccc(Br)s3)n[nH]2)CC1`, the cytotoxicity at 70.5 h is -10.2%.

In the case of `O=C(NCC(O)COc1ccc(C(F)(F)F)cc1)Nc1nncs1` (stereo not given), the cytotoxicity at 70.5 h was -12.1%.

Take `CCOCC1CN(C(=O)c2cnoc2C)Cc2cn(CC3CC3)nc21` (stereo not given): the cytotoxicity at 70.5 h was -8.9%.

Consider `O=C(c1ccco1)N1CC[C@@H]2CN(C3CCOCC3)CCO[C@@H]2C1`, for which the cytotoxicity at 70.5 h stood at 0.698%.

The data set is the same for the next values; noted with them: hepg2, 70.5 h, 70.5 h.
By Inhibition is commonly meant the change of the read-out against control, counted positive when it falls. In the case of `CC1=Nc2c(c(=O)[nH]n2C2CCCC2)C(c2cccnc2)S1` (stereo not given), the Inhibition was -2.319% and 7.616%.
